Experimental data from paper PMC2873968, “Novel protein kinase D inhibitors cause potent arrest in prostate cancer cell growth and motility” (BMC Chemical Biology, 2010).

What was measured:
PKCδ = target: T1, PKCδ (Homo sapiens, UniProt Q05655); experiment: In vitro radiometric PKC kinase assay; assay type: biochemical
T1 construct: purchased Enzo Life Sciences
Experimental: (§1) The PKC in vitro kinase assays were performed as described previously.
To determine whether the novel analogs retained this specificity, we tested the compounds against their ability to inhibit PKCα, -βI, -δ, and CAMKIIα in in vitro radiometric kinase activity assays.
Inhibition of PKCα (A), PKCβI (B), PKCδ (C), or CAMKIIα (D) by each of the 5 analogs was determined at 100 nM, 1 μM, and 10 μM concentrations. […] Data are the mean ± S.E.M. of three independent experiments. Statistical significance was determined using the unpaired t-test. ns, not statistically significant; *, p < 0.05; **, p < 0.01; ***, p < 0.001.

PKCβI = target: T2, PKCβI (Homo sapiens, UniProt P05771); experiment: In vitro radiometric PKC kinase assay; assay type: biochemical
T2 construct: purchased Cell Signaling Technology
Experimental: as §1
(§2) To determine whether the novel analogs retained this specificity, we tested the compounds against their ability to inhibit PKCα, -βI, -δ, and CAMKIIα in in vitro radiometric kinase activity assays. All analogs were poor inhibitors of PKCα and PKCβI, with only slight (< 50%) inhibitory activity at 10 μM concentration (Fig. 5A and 5B).
(§3) Inhibition of PKCα (A), PKCβI (B), PKCδ (C), or CAMKIIα (D) by each of the 5 analogs was determined at 100 nM, 1 μM, and 10 μM concentrations. In the PKC assays, the potent PKC inhibitor GF109203X was used as a control. Data are the mean ± S.E.M. of three independent experiments. Statistical significance was determined using the unpaired t-test. ns, not statistically significant; *, p < 0.05; **, p < 0.01; ***, p < 0.001.

PKCα = target: T3, PKCα (Homo sapiens, UniProt P17252); experiment: In vitro radiometric PKC kinase assay; assay type: biochemical
T3 construct: purchased Cell Signaling Technology and Calbiochem
Experimental: as §1, §2, §3

PKD = conditions: reported values, no reference given; cited from earlier work

T1 sequence (Q05655 whole entry): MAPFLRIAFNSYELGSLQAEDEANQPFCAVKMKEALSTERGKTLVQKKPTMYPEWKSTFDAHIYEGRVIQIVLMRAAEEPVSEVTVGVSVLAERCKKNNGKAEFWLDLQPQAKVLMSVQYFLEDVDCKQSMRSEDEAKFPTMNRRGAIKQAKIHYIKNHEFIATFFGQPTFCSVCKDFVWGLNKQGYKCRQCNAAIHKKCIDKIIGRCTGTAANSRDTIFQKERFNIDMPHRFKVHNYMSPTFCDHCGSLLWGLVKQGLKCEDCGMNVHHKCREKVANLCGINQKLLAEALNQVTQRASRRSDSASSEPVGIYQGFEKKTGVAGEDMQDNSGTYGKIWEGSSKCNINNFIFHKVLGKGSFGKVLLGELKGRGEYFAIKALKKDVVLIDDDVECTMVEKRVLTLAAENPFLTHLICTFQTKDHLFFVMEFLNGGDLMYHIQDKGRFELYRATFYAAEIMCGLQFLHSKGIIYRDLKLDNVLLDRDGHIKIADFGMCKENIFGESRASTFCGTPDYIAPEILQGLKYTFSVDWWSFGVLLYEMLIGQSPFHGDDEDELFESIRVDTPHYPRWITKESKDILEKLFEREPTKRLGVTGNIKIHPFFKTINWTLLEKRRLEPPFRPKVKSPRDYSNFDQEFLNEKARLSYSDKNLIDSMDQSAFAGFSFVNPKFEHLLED
T2 sequence (P05771 whole entry): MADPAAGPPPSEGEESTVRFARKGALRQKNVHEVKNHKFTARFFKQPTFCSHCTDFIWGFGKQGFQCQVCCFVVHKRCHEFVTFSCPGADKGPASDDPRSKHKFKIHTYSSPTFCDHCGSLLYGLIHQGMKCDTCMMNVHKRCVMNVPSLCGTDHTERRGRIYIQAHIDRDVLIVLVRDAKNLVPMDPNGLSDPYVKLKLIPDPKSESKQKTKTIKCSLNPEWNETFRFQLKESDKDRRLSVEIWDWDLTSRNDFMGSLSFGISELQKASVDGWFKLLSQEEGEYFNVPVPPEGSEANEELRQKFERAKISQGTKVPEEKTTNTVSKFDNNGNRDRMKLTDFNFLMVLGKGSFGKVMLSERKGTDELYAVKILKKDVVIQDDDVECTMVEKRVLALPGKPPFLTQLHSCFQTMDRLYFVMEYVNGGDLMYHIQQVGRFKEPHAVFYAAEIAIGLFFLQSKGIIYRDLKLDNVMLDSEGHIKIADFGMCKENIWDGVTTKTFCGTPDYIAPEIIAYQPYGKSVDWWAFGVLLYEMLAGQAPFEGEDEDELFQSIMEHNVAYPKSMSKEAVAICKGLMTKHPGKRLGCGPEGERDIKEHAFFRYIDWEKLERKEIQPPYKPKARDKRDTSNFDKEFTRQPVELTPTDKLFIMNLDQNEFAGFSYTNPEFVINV

For CN(C)CCCn1cc(C2=C(c3c[nH]c4ccccc34)C(=O)NC2=O)c2ccccc21 [GF109203X], the “inhibition of PKCδ (in words)” value (PKCδ) was “strong inhibition”, the “inhibition of PKCβI (in words)” value (PKCβI) was “strong inhibition” and the “inhibition of PKCα (in words)” value (PKCα) was “strong inhibition”.
For Cn1c2ccccc2c2c3c(c4c5ccccc5n(CCC#N)c4c21)CNC3=O [Gö6976], the IC50 (PKD) is listed as 20 nM.
In the case of COC(=O)[C@@]1(O)C[C@H]2O[C@]1(C)n1c3ccccc3c3c4c(c5c6ccccc6n2c5c31)C(=O)NC4 [Compound K252a], the IC50 (PKD) is given as 7 nM.
